Columns and labels:
[1] = test system: human neuroblastoma cell line GOTO; experiment: Activity on neuroblastoma cell line GOTO (cell number, number and length of neurites); assay type: cell-based; details: for Number of cells (mean ± S.E.): control 5.30 ± 0.23
Method: (§1) The biological activities in vitro of the compounds of formula (I) on cells of the nervous system were tested. The cells tested were human neuroblastoma cell line GOTO [see Sekiguchi, M., Oota, T., Sakakibara, K., Inui, N. & Fujii, G., Japan. J. Exp. Med., 49, 67-83 (1979)], and neuroblastoma cell line NB-1 [see Miyake, S., Shimo, Y., Kitamura, T., Nojyo, Y., Nakamura, T., Imkashuku, S. and Abe, T., The Autonomic Nervous System, 10, 115-120 (1973)], and mouse neuroblastoma cell line neuro-2a (Dainippon Pharmaceutical Co., Ltd.) which have been established as the cells of the nervous system. The above neuve cells were grown in an incubator at 37° C. in the presence of 5% carbon dioxide gas exponentially, and then cultivated for a certain period of time together with the compounds of formula (I).
The effect of the compounds of this invention on neuroblastoma cells was examined by the following method.
A culture medium [composed of 45% of RPMI 1640 medium, 45% modified Eagle's medium (MEM) and 10% of fetal calf serum (FCS) and containing penicillin G sodium (100 units/ml) and streptomycin sulfate (100 microgram/ml)] containing neurobalstoma cell line GOTO in the logarithmic growth period was poured in an amount of 2 ml each into polystyrene dishes (35 mm; made by Corning Co.) so that the cell concentration was 2 to 6×10^4 cells per dish, and the cells were cultured for 1 to 2 days in a carbon dioxide gas incubator containing 5% of carbon dioxide gas in air at 37° C. Then, the culture fluid was removed, and 2 ml of a fresh serum-free culture fluid (consisting of 50% of RPMI medium and 50% of MEM medium and containing penicillin G sodium and streptomycin sulfate in the same amounts as above) was added. At the same time, a presterilized PBS solution (phosphate buffered saline) of each of the test compounds in various concentrations was added to each of the dishes. After culturing for 24 hours, the number of living cells was counted. Furthermore, the culture was photographed, and from the photos, the number and length of neurites per cell were measured. The numer of living cells was counted for 3 to 6 dishes by resistance to staining with erythrosine dye. The number and length of the neurites were measured with regard to 6 photos (more than 200 cells per photo).

[2] = test system: mice; experiment: Acute toxicity, mouse; assay type: in vivo; details: Table 7, 1000 mg/kg p.o., 24 hours
Method: The acute toxicity of the compounds of the invention was examined by the following method.
Male ddy-strain 5-week old mice and male Wistar-strain 8 week old rats, five per group, were used as experimental animals. Each of the compounds was dissolved in saline and administered perorally, and the toxicity of the compound was assessed 24 hours after the administration.

[3] = test system: mouse neuroblastoma cell line neuro-2a; experiment: Activity on neuro-2a, cells with outgrown neurites; assay type: cell-based
Method: In order to examine the effects of the test compounds, the following method was also employed.
Mouse neuro 2a cells in the logarithmic growth period in the Dulbecco's modified Eagle's medium (DMEM) containing 10% FCS was seeded in a 48-well plate so that the number of cells was 1,000 cells/well, and cultured for one day in 0.25 ml of the culture fluid in each well. The culture medium was then replaced by a medium containing each of the test compounds and FCS, and the cells were further cultured for 24 hours. Then, a 4% aqueous glutaraldehyde solution in the same amount as the medium (0.25 ml) was added, and the culture fluid was left to stand at room temperature for 2 hours to fix the cells. After washing with water, a 0.05% aqueous solution of methylene blue was added to stain the cells. Under a microscope, the number of cells containing outgrown neurites (cells having at least one neutrite with a length at least two times as large as the long diameter of the cell) was counted visually, and the proportion of these cells in the entire cells was calculated. The well was observed over 5 or more visual fields (at least 2% of the entire surface area of the well) continuous to the left and right from a mark put at the center of the well, and more than 200 cells was counted. One drug compound was used in 6 different concentrations at most, and three runs were conducted for each concentration.

[4] = test system: mouse neuroblastoma cell line neuro-2a; experiment: Activity on cell line neuro-2a (simple method); assay type: cell-based
Method: as §1, with “(I). […]” for “(I).”
As a simple method of evaluation, the number of cells have neurites with a length equal to, or larger than, the long diameter of the cell was divided by the total number of cells.

[5] = test system: rats with crushed sciatic nerves; experiment: Curative effect on rats with crushed sciatic nerves; assay type: in vivo, rat (male Wistar)
Method: Curative effect on rats with crushed sciatic nerves:
The curing effect of the compound (I) of the invention was tested on rats having crushed scietic nerves as a model of peripheral nervous disorder using (1) a change in the action of the hind paw with the crushed sciatic nerves and (2) a change in the weight of the muscle as an index of the course of degeneration and regeneartion of peripheral nerves.
In the experiment, male Wistar rats (6 weeks old), seven per group, were used. The sciatic nerves were crushed by a method similar to the method of Yamatsu et al. (see Kiyomi Yamatsu, Takenori Kaneko, Akifumi Kitahara and Isao Ohkawa, Journal of Japanese Pharmacological Society, 72, 259-268 (1976) and the method of Hasegawa et al. (see Kazuo Hasegawa, Naoji Mikuni and Yutaka Sakai, Journal of Japanese Pharmacological Society, 74, 721-734 (1978). Specifically, under anesthesia with pentobarbital (40 mg/kg, i.p.), the left side sciatic nerve was exposed at the femur and that site of the exposed scietic nerve which was 5 mm to the center from the branched part between the N. tibialis and the N. suralis was crushed using a modified artery, klomme, having a width of 2 mm and a gap of 0.1 mm. After the operation, the rats were assigned to the test groups at random.
Compound No. 408 was selected as the compound (I) of the invention and intraperitoneally administered to the rats once a day from the day of operation to the 22nd day. A group to which mecobalamin (made by Gedeon Richter Ltd.) was administered and a group to which 0.9% saline was administered were used as controls. The following items were measured with the lapse of time (on the 1st, 4th, 7th, 10th, 14th, 17th, 21st, and 23rd days after the crushing of the scietic nerves).
(1) Change in the action of the side of the hind paw with the crushed scietic nerve:
By a method similar to the method of Hasegawa [Hasegawa, K., Experientia, 34, 750-751 (1978)], the distance between the first and fifth digits of the hind paw was measured.
The ratio of the measured distance to the normal distance was calculated and expressed in percentage (%).
(2) Change in the weight of muscle
It is known that removal of a nerve or its disorder causes atrophy of the muscle which is under its control, and the atrophy is gradually cured by re-control by the nerve. For this reason, a change in the weight of the muscle, which is quantitative, was selected as an index. Twenty-three days after the operation, the soleus muscles of both sides of paws were extracted under anesthesia with pentobarbital, and their weights were measured. The ratio of the weight of the soleus muscle on the crushed side to that of normal side was calculated and expressed in percentage (%).

[6] = Table 3 Run No. 6, 0.1 mM, control 4.4 ± 0.9

SMILES: c1ccc(CN2CCN(c3ncccn3)CC2)cc1 [Compound 132]
- Number of neurites/cell (mean ± S.D.) ([1]; Table 1 Run No. 5, 1 μg/ml, control 1.96 ± 0.64): 1.95 ± 0.46 neurites/cell
- Number of cells (mean ± S.E.) ([1]; Table 1 Run No. 5, 1 μg/ml): 5.63 ± 0.68 × 10^4 /dish
- Length of neurites (mean ± S.D.) ([1]; Table 1 Run No. 5, 1 μg/ml, control 46.41 ± 33.28): 52.61 ± 32.09 μm/cell
- Number of neurites/cell (mean ± S.D.) ([1]; Table 1 Run No. 5, 10 μg/ml, control 1.96 ± 0.64): 2.03 ± 0.63 neurites/cell
- Number of cells (mean ± S.E.) ([1]; Table 1 Run No. 5, 10 μg/ml): 6.26 ± 0.27 × 10^4 /dish
- Length of neurites (mean ± S.D.) ([1]; Table 1 Run No. 5, 10 μg/ml, control 46.41 ± 33.28): 52.85 ± 30.00 μm/cell
- Number of dead animals/number of test animals [2]: 0/5
- Cells having neurites with a length at least twice the long diameter of cell/total number of cells ([3]; Table 3 Run No. 1, 0.027 μM, control 2.2 ± 0.8): 4.2 ± 1.0%
- Cells having neurites with a length at least twice the long diameter of cell/total number of cells ([3]; Table 3 Run No. 1, 0.27 μM, control 2.2 ± 0.8): 4.3 ± 1.2%
- Cells having neurites with a length at least twice the long diameter of cell/total number of cells ([3]; Table 3 Run No. 1, 27 μM, control 2.2 ± 0.8): 4.3 ± 0.5%
- Cells having neurites with a length at least twice the long diameter of cell/total number of cells ([3]; Table 3 Run No. 2, 0.1 mM, control 1.9 ± 0.9): 4.4 ± 0.7%
- Cells having neurites with a length at least twice the long diameter of cell/total number of cells ([3]; Table 3 Run No. 2, 0.3 mM, control 1.9 ± 0.9): 11.2 ± 1.3%
- Cells having neurites with a length at least twice the long diameter of cell/total number of cells ([3]; Table 3 Run No. 2, 1 mM, control 1.9 ± 0.9): 9.1 ± 3.0%

SMILES: O=C1NCc2nc(N3CCNCC3)ncc21 [Compound 620]
- Number of dead animals/number of test animals [2]: 0/5
- Cells having neurites with a length at least twice the long diameter of cell/total number of cells [3, 6]: 7.2 ± 0.3%
- Cells having neurites with a length at least twice the long diameter of cell/total number of cells ([3]; Table 3 Run No. 6, 1 mM, control 4.4 ± 0.9): 10.5 ± 3.2%
- Cells having neurites with a length at least twice the long diameter of cell/total number of cells ([3]; Table 3 Run No. 6, 3 mM, control 4.4 ± 0.9): 20.7 ± 2.5%
- Cells having neurites with a length at least twice the long diameter of cell/total number of cells ([3]; Table 3 Run No. 9, 0.3 mM, control 2.0 ± 1.0): 6.2 ± 1.5%
- Cells having neurites with a length at least twice the long diameter of cell/total number of cells ([3]; Table 3 Run No. 9, 1 mM, control 2.0 ± 1.0): 11.3 ± 3.3%
- Cells having neurites with a length at least twice the long diameter of cell/total number of cells ([3]; Table 3 Run No. 9, 3 mM, control 2.0 ± 1.0): 19.6 ± 0.5%
- Average of the proportions ([4]; Table 2 neuro-2a Run No. 3, 0.01 μg/ml, control 2.0): 13.01%
- Average of the proportions ([4]; Table 2 neuro-2a Run No. 3, 0.1 μg/ml, control 2.0): 15.46%
- Average of the proportions ([4]; Table 2 neuro-2a Run No. 3, 1 μg/ml, control 2.0): 9.8%

SMILES: O=C1CCCc2nc(N3CCNCC3)ncc2N1 [Compound 502]
- Length of neurites (mean ± S.D.) ([1]; Table 1, Run No. 7 by footnote, 1 μg/ml, control 42.20 ± 17.75, all *P <0.01): 52.24 ± 23.92 μm/cell
- Number of neurites/cell (mean ± S.D.) ([1]; Table 1, last control group (Run No. 7 by footnote), 1 μg/ml, control 1.77 ± 0.68): 1.99 ± 0.65 neurites/cell
- Number of dead animals/number of test animals [2]: 0/5
- Cells having neurites with a length at least twice the long diameter of cell/total number of cells ([3]; Table 3 Run No. 8, 0.3 mM, control 3.7 ± 0.4): 5.5 ± 2.0%
- Cells having neurites with a length at least twice the long diameter of cell/total number of cells ([3]; Table 3 Run No. 8, 1 mM, control 3.7 ± 0.4): 7.8 ± 1.2%

SMILES: C/C1=C2/[N-][C@H]([C@H](CC(N)=O)[C@@]2(C)CCC(=O)NC[C@@H](C)OP(=O)([O-])O[C@H]2[C@@H](O)[C@@H](n3cnc4cc(C)c(C)cc43)O[C@@H]2CO)[C@]2(C)N=C(/C(C)=C3N=C(/C=C4N=C1[C@@H](CCC(N)=O)C\4(C)C)[C@@H](CCC(N)=O)[C@]\3(C)CC(N)=O)[C@@H](CCC(N)=O)[C@]2(C)CC(N)=O.[CH3-].[Co+3] [Mecobalamin, mecobalamin, reference compound]
- Rate of recovery of the interdigit distance ([5]; 21st day, 0.5 mg/kg ip, saline 62.0 ± 2.4, ***P < 0.001): 79.1 ± 2.6%
- Rate of recovery of the interdigit distance ([5]; 23rd day, 0.5 mg/kg ip, saline 71.1 ± 3.4, **P < 0.01): 88.3 ± 4.0%
- interdigit distance, recovery versus saline ([5]; in words, 21st day): apparent tendency to quicker recovery
- Rate of recovery in muscle weight ([5]; soleus muscle, 23rd day, 0.5 mg/kg ip, saline 51.8 ± 1.2): 55.0 ± 3.5%

SMILES: Cn1[nH]c2nc(N3CCNCC3)ncc2c1=O [Compound 802]
- Number of neurites/cell (mean ± S.D.) ([1]; Table 1, Run No. 7 by footnote, 10 μg/ml, control 1.77 ± 0.68): 2.02 ± 0.71 neurites/cell
- Length of neurites (mean ± S.D.) ([1]; Table 1, Run No. 7 by footnote, 10 μg/ml, control 42.20 ± 17.75, all *P <0.01): 52.16 ± 19.79 μm/cell
- Cells having neurites with a length at least twice the long diameter of cell/total number of cells [3, 6]: 7.5 ± 2.2%
- Average of the proportions ([4]; Table 2 neuro-2a Run No. 2, 1 μg/ml, control 7.9): 19.68%
- Average of the proportions ([4]; Table 2 neuro-2a Run No. 2, 10 μg/ml, control 7.9): 15.51%
